Patent US12371454B2, “Cyclic peptide compound having Kras inhibitory action” (priority 2019, dated 2025)
Positions of bridges follow the written chain, without caps; N, C: chain ends. Non-standard residues stand in square brackets, D forms with d. Residues, ends and D or L forms follow the SMILES beside them. *: point of attachment. hPhe(3-Cl-4-CF3) = N[C@@H](CCc1ccc(C(F)(F)F)c(Cl)c1)C(=O)O; 3Oxa8azabicyclo(3.2.1)octane = C1CC2COCC1N2*; NMePhe(4-Me) = CN[C@@H](Cc1ccc(C)cc1)C(=O)O; NMeAla(cPent) = CN[C@@H](CC1CCCC1)C(=O)O; NMeGly(cPent) = CN[C@H](C(=O)O)C1CCCC1; Gly(cPent) = N[C@H](C(=O)O)C1CCCC1; NMeCha = CN[C@@H](CC1CCCCC1)C(=O)O; NMehLeu = CN[C@@H](CCC(C)C)C(=O)O; NEtLeu = CCN[C@@H](CC(C)C)C(=O)O; NMeD = CN[C@@H](CC(=O)O)C(=O)O; NMeL = CN[C@@H](CC(C)C)C(=O)O; d(β3hA) = C[C@@H](N)CC(=O)O; Azetidin(1-yl) = C1CN(*)C1; NMeS = CN[C@@H](CO)C(=O)O; Morpholide = C1CN(*)CCO1; NMeA = CN[C@@H](C)C(=O)O; Ac5c = NC1(C(=O)O)CCCC1; Aze = O=C(O)[C@@H]1CCN1; Sar = CNCC(=O)O; Propyl = CCC*

The compounds below were run on Human pancreatic cancer cell line AsPC-1 (assay: Measurement of AsPC-1 cell growth inhibition (AsPC-1 CGI)). Conditions: 96 h.
Assay type: cell-based
How it was run: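 AsPC-1 cells in 15% FBS RPMI-1640 were exposed to test compound for 96 hours at 37° C, with CellTiter-Glo as endpoint.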
`CCCOC[C@H]1C(=O)N(C)CC(=O)N[C@@H](CCc2ccc(C(F)(F)F)c(Cl)c2)C(=O)N2CCC[C@H]2C(=O)NC2(CCCC2)C(=O)N(C)[C@@H](C2CCCC2)C(=O)N(C)[C@H](C(=O)N2C3CCC2COC3)CC(=O)N(CC)[C@@H](CC(C)C)C(=O)N[C@@H]([C@@H](C)CC)C(=O)N[C@@H](C)C(=O)N2CC[C@H]2C(=O)N1C` [Compound 1167] ([NEtLeu]IA[Aze][NMeS](Propyl)[Sar][hPhe(3-Cl-4-CF3)]P[Ac5c][NMeGly(cPent)][NMeD]-{3Oxa8azabicyclo(3.2.1)octane}; lactam N-11) showed an IC50 of 100 to 500 nM. `CC[C@H](C)[C@@H]1NC(=O)[C@H](CCC(C)C)N(C)C(=O)C[C@@H](C(=O)N2CCOCC2)N(C)C(=O)[C@H](C2CCCC2)N(C)C(=O)C2(CCCC2)NC(=O)[C@@H]2CCCN2C(=O)[C@H](CCc2ccc(C(F)(F)F)c(Cl)c2)NC(=O)CN(C)C(=O)[C@H](CC2CCCCC2)N(C)C(=O)[C@@H]2CCN2C(=O)[C@H](C)NC1=O` [Compound 1171] ([NMehLeu]IA[Aze][NMeCha][Sar][hPhe(3-Cl-4-CF3)]P[Ac5c][NMeGly(cPent)][NMeD]-Morpholide; lactam N-11) was tested, and the IC50 was 20 to 50 nM. `CC[C@H](C)[C@@H]1NC(=O)[C@H](CC2CCCC2)N(C)C(=O)C[C@@H](C(=O)N2CCOCC2)N(C)C(=O)[C@H](C2CCCC2)N(C)C(=O)C2(CCCC2)NC(=O)[C@@H]2CCCN2C(=O)[C@H](CCc2ccc(C(F)(F)F)c(Cl)c2)NC(=O)CN(C)C(=O)[C@H](CC2CCCCC2)N(C)C(=O)[C@@H]2CCN2C(=O)[C@H](C)NC1=O` [Compound 1176] ([NMeAla(cPent)]IA[Aze][NMeCha][Sar][hPhe(3-Cl-4-CF3)]P[Ac5c][NMeGly(cPent)][NMeD]-Morpholide; lactam N-11) was tested, and the IC50 was 50 to 100 nM. `CCCOC[C@H]1C(=O)N(C)CC(=O)N[C@@H](CCc2ccc(C(F)(F)F)c(Cl)c2)C(=O)N2CCC[C@H]2C(=O)NC2(CCCC2)C(=O)N(C)[C@@H](C2CCCC2)C(=O)N(C)[C@H](C(=O)N2C3CCC2COC3)CC(=O)N(CC)[C@@H](CC(C)C)C(=O)N[C@@H]([C@@H](C)CC)C(=O)N(C)[C@@H](C)C(=O)N2CC[C@H]2C(=O)N1C` [Compound 1193] ([NEtLeu]I[NMeA][Aze][NMeS](Propyl)[Sar][hPhe(3-Cl-4-CF3)]P[Ac5c][NMeGly(cPent)][NMeD]-{3Oxa8azabicyclo(3.2.1)octane}; lactam N-11) showed an IC50 of 20 to 50 nM. With `CC[C@H](C)[C@@H]1NC(=O)[C@H](CC(C)C)N(CC)C(=O)C[C@@H](C(=O)N2CCC2)N(C)C(=O)[C@H](C2CCCC2)N(C)C(=O)C2(CCCC2)NC(=O)[C@@H]2CCCN2C(=O)[C@H](CCc2ccc(C(F)(F)F)c(Cl)c2)NC(=O)CN(C)C(=O)[C@H](CC2CCCCC2)N(C)C(=O)[C@@H]2CCN2C(=O)[C@H](C)N(C)C1=O` [Compound 1198] ([NEtLeu]I[NMeA][Aze][NMeCha][Sar][hPhe(3-Cl-4-CF3)]P[Ac5c][NMeGly(cPent)][NMeD]-{Azetidin(1-yl)}; lactam N-11) the IC50 was 20 to 50 nM. `CC[C@H](C)[C@@H]1NC(=O)[C@H](CC(C)C)N(C)C(=O)C[C@@H](C)NC(=O)[C@H](C2CCCC2)NC(=O)C2(CCCC2)NC(=O)[C@@H]2CCCN2C(=O)[C@H](CCc2ccc(C(F)(F)F)c(Cl)c2)NC(=O)CN(C)C(=O)[C@H](Cc2ccc(C)cc2)N(C)C(=O)[C@@H]2CCN2C(=O)[C@H](C)N(C)C1=O` [Compound 1213] (cyclo([Ac5c][Gly(cPent)][d(β3hA)][NMeL]I[NMeA][Aze][NMePhe(4-Me)][Sar][hPhe(3-Cl-4-CF3)]P)) showed an IC50 of 100 to 500 nM. `CC[C@H](C)[C@@H]1NC(=O)[C@H](CCC(C)C)N(C)C(=O)C[C@@H](C(=O)N2CCOCC2)N(C)C(=O)[C@H](C2CCCC2)N(C)C(=O)C2(CCCC2)NC(=O)[C@@H]2CCCN2C(=O)[C@H](CCc2ccc(C(F)(F)F)c(Cl)c2)NC(=O)CN(C)C(=O)[C@H](C2CCCC2)N(C)C(=O)[C@@H]2CCN2C(=O)[C@H](C)NC1=O` [Compound 1223] ([NMehLeu]IA[Aze][NMeGly(cPent)][Sar][hPhe(3-Cl-4-CF3)]P[Ac5c][NMeGly(cPent)][NMeD]-Morpholide; lactam N-11) showed an IC50 of 20 to 50 nM.
